Reference: PMC4979471 (Cell Death Discovery, 2015)
Read-outs that look alike come from different tables or passages of the source.

Columns and labels:
Test in all cases: Kinase selectivity, P33-radiolabeled assay
Type in all cases: biochemical
NEK3 = target: T1, NEK3 (Homo sapiens, UniProt P51956); conditions: 10 μM ATP
T1 construct: purchased Reaction Biology Corp
T1 sequence (P51956 1-506): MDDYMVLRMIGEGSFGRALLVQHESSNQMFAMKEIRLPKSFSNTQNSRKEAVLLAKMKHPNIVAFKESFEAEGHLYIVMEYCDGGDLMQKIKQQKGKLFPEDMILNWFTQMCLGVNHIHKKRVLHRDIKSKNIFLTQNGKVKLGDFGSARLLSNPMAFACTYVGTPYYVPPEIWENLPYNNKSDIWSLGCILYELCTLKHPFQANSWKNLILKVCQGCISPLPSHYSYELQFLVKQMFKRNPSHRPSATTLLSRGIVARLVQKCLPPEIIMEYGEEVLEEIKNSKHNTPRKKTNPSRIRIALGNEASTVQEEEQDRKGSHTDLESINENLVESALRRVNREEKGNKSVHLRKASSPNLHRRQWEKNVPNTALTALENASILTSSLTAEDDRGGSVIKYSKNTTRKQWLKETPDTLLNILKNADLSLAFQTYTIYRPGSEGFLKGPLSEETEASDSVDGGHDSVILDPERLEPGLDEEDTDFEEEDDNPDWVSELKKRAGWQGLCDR
Outline: (§1)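 ATP at 10 μM; test article at 10 μM, single point, two replicates. Output is activity as % of DMSO.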

FLT4/VEGFR3 = target: T2, FLT4/VEGFR3 (Homo sapiens, UniProt P35916); conditions: 10 μM ATP
T2 construct: purchased Reaction Biology Corp
Outline: as §1

Aurora B = target: T3, Aurora B (Homo sapiens, UniProt Q96GD4)
T3 construct: purchased Reaction Biology Corp
Outline: as §1

SIK2 = target: T4, SIK2 (Homo sapiens, UniProt Q9H0K1); conditions: 10 μM ATP
T4 construct: purchased Reaction Biology Corp
Outline: as §1

SIK1 = target: T5, SIK1 (Homo sapiens, UniProt P57059); conditions: 10 μM ATP
T5 construct: purchased Reaction Biology Corp
Outline: as §1

TRKC = target: T6, TRKC (Homo sapiens, UniProt Q16288); conditions: 10 μM ATP
T6 construct: purchased Reaction Biology Corp
Outline: as §1

FMS = target: T7, FMS (Homo sapiens, UniProt P07333); conditions: 10 μM ATP
T7 construct: purchased Reaction Biology Corp
Outline: as §1

ABL2/ARG = target: T8, ABL2/ARG (Homo sapiens, UniProt P42684); conditions: 10 μM ATP
T8 construct: purchased Reaction Biology Corp
Outline: as §1

DCAMKL1 = target: T9, DCAMKL1 (Homo sapiens, UniProt O15075); conditions: 10 μM ATP
T9 construct: purchased Reaction Biology Corp
T9 sequence (O15075 1-740): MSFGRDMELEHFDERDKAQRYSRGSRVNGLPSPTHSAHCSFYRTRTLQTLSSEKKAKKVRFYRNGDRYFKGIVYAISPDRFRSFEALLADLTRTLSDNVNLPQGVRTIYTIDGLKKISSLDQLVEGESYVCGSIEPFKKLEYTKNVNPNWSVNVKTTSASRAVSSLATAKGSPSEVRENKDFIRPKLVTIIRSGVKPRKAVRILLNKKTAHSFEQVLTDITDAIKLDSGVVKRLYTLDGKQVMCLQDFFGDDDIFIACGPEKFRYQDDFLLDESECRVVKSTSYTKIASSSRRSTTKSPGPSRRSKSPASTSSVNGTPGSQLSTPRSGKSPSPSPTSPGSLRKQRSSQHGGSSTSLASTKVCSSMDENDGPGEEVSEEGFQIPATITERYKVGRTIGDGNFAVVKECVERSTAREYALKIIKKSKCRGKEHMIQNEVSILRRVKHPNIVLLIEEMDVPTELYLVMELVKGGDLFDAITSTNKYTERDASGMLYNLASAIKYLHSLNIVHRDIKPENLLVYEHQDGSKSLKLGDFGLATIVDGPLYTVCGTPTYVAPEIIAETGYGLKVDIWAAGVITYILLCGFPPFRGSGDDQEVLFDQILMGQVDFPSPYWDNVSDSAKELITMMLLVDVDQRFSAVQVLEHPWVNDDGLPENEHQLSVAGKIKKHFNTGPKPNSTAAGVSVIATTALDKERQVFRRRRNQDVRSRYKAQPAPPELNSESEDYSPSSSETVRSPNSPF
Outline: as §1

ERK1 = target: T10, ERK1 (Homo sapiens, UniProt P27361); conditions: 10 μM ATP
T10 construct: purchased Reaction Biology Corp
Outline: as §1

DAPK2 = target: T11, DAPK2 (Homo sapiens, UniProt Q9UIK4); conditions: 10 μM ATP
T11 construct: purchased Reaction Biology Corp
Outline: as §1

DMPK2 = target: T12, DMPK2 (Homo sapiens, UniProt Q6DT37); conditions: 10 μM ATP
T12 construct: purchased Reaction Biology Corp
Outline: as §1

LRRK2 = target: T13, LRRK2 (Homo sapiens, UniProt Q5S007); conditions: 10 μM ATP
T13 construct: purchased Reaction Biology Corp
Outline: as §1

CLK2 = target: T14, CLK2 (Homo sapiens, UniProt P49760); conditions: 10 μM ATP
T14 construct: purchased Reaction Biology Corp
Outline: as §1

[1] = read-out: % Enzyme Activity (relative to DMSO controls) AVG
[2] = read-out: % Enzyme Activity (relative to DMSO controls) Data 1
[3] = read-out: % Enzyme Activity (relative to DMSO controls) Data 2

T5 sequence (P57059 whole entry): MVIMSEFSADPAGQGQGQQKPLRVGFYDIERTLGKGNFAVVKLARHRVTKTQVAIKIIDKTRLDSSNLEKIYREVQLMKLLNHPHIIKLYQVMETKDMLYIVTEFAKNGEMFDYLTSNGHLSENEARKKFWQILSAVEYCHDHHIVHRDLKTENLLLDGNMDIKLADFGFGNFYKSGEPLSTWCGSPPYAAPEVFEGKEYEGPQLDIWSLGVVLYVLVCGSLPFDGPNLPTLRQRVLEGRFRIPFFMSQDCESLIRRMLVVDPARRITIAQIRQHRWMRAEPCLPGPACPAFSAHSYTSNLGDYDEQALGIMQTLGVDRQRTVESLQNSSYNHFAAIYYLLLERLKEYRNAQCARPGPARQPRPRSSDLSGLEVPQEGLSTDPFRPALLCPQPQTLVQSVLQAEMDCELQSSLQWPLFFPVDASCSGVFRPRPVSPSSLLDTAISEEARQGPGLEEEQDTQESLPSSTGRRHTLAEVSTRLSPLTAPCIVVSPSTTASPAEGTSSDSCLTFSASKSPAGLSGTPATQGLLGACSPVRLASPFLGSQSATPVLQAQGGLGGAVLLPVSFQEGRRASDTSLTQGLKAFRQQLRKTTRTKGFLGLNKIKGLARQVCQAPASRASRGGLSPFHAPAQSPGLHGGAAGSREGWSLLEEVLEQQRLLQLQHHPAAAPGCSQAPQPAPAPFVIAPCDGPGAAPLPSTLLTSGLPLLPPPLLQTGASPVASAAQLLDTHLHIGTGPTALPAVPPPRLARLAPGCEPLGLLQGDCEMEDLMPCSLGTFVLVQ
T11 sequence (Q9UIK4 whole entry): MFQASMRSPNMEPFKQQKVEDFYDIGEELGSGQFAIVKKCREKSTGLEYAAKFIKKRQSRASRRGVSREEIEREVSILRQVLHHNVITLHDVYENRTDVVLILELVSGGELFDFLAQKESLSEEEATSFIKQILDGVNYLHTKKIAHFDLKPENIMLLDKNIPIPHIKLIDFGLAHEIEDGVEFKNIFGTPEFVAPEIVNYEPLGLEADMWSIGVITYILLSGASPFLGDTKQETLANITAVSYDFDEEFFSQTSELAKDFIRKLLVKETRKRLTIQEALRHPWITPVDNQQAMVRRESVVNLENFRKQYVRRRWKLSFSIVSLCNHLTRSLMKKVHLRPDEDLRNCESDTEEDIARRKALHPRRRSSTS
T10 sequence (P27361 whole entry): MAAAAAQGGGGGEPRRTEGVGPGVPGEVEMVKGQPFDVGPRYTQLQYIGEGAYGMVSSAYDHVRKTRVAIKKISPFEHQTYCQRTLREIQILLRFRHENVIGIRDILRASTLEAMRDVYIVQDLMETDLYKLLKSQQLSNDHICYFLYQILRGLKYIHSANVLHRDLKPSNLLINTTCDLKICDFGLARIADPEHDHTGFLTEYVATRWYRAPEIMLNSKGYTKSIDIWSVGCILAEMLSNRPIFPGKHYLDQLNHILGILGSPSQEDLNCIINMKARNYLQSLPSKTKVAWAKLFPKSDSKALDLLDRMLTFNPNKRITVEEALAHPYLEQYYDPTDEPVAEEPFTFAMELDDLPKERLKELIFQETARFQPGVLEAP
T2 sequence (P35916 25-1363): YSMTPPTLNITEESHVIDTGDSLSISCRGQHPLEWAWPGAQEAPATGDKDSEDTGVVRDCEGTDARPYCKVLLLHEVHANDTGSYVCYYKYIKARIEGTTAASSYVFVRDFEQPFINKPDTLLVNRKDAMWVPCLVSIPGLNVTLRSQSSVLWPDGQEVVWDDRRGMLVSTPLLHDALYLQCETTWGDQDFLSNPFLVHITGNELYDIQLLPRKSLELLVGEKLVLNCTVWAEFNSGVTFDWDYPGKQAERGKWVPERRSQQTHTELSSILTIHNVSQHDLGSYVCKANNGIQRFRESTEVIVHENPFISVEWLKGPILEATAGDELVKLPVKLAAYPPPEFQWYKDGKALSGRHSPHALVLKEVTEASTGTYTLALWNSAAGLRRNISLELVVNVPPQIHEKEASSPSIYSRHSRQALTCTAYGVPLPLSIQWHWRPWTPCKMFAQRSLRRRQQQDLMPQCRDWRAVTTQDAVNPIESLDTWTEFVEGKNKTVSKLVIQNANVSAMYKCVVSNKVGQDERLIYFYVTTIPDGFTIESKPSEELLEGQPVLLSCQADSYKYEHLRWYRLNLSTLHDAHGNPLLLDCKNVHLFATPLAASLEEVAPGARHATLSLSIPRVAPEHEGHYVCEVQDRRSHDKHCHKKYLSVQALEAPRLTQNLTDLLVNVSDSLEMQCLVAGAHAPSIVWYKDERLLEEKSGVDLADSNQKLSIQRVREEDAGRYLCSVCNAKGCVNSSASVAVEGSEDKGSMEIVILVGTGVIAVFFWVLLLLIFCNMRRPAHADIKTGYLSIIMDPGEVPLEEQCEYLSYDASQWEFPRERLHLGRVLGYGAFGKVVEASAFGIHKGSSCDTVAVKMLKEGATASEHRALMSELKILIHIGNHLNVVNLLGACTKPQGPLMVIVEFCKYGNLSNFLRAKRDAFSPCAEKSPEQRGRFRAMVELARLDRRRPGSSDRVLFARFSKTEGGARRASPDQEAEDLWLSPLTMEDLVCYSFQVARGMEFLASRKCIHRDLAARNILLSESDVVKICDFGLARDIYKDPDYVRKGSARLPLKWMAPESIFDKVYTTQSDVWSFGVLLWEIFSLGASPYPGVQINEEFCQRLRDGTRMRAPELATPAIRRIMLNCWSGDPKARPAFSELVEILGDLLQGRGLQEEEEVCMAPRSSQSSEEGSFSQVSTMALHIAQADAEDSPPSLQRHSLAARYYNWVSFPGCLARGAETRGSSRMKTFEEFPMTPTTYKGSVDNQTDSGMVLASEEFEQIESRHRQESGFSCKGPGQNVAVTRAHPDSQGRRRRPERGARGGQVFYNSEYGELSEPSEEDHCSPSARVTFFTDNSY
T6 sequence (Q16288 32-839): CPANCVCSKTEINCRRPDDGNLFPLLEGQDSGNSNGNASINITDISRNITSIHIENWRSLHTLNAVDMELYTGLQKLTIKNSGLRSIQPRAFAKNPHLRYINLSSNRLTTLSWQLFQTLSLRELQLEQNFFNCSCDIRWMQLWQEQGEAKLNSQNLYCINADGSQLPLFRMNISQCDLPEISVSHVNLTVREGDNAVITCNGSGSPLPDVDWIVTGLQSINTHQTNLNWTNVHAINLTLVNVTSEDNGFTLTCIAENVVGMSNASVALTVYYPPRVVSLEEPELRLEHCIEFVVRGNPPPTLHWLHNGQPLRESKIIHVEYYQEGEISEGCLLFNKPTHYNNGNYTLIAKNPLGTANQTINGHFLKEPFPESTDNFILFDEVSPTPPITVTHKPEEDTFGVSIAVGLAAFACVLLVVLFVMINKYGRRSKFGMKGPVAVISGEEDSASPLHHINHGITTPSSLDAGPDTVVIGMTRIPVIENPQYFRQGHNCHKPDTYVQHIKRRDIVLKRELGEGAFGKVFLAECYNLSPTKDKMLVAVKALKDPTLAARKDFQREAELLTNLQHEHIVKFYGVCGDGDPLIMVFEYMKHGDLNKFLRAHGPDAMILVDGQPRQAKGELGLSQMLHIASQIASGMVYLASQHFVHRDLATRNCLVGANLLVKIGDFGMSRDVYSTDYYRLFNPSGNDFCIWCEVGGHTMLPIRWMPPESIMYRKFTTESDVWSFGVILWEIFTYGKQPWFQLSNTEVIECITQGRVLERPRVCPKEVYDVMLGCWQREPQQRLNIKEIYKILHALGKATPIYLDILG
T8 sequence (P42684 whole entry): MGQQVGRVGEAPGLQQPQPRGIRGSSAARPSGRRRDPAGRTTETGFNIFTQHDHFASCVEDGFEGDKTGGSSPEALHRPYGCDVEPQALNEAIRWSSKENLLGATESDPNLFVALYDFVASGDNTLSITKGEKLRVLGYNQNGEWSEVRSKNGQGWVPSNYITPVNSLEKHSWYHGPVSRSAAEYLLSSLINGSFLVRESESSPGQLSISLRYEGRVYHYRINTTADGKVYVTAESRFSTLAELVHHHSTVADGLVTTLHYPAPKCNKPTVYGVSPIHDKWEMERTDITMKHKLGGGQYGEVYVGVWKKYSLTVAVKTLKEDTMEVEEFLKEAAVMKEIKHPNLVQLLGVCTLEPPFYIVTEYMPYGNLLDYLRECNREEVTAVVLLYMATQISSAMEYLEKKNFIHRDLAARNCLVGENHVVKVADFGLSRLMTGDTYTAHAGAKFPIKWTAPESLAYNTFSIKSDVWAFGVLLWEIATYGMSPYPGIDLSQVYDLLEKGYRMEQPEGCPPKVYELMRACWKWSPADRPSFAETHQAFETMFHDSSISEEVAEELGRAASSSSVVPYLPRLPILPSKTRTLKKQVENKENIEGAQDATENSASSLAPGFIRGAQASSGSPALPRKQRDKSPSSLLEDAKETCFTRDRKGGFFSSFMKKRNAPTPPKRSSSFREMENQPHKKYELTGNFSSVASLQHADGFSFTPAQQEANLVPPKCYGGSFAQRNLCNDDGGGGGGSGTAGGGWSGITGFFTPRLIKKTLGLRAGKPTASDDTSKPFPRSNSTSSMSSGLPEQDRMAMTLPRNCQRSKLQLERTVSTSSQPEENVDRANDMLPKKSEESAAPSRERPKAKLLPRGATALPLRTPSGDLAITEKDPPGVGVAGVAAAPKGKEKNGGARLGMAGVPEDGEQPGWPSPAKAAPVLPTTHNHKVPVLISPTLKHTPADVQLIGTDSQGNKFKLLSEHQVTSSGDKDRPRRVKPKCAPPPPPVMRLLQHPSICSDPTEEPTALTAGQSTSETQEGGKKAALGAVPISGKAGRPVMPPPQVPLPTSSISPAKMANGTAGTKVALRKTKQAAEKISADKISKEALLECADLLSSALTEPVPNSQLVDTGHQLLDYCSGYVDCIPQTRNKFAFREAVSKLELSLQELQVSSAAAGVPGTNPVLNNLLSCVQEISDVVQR

## CC(C)(C)C(=O)N1N=CC[C@H]1c1ccccc1 [GSK′963]
NEK3; [1]
  remaining activity at 10 µM: 93.5%
NEK3; [2]
  remaining activity at 10 µM: 93.2%
NEK3; [3]
  remaining activity at 10 µM: 93.8%
FLT4/VEGFR3; [1]
  remaining activity at 10 µM: 103%
FLT4/VEGFR3; [2]
  remaining activity at 10 µM: 105%
FLT4/VEGFR3; [3]
  remaining activity at 10 µM: 102%
Aurora B; 10 uM, 10 μM ATP, read-out: % Enzyme Activity (relative to DMSO controls) Data 1
  remaining activity at 10 µM: 104%
Aurora B; 10 uM, 10 μM ATP, read-out: % Enzyme Activity (relative to DMSO controls) Data 2
  remaining activity at 10 µM: 98.7%
Aurora B; [1]
  remaining activity at 10 µM: 101%
SIK2; [1]
  remaining activity at 10 µM: 96.7%
SIK2; [2]
  remaining activity at 10 µM: 94.8%
SIK2; [3]
  remaining activity at 10 µM: 98.6%
SIK1; [1]
  remaining activity at 10 µM: 113%
SIK1; [2]
  remaining activity at 10 µM: 113%
SIK1; [3]
  remaining activity at 10 µM: 113%
TRKC; [1]
  remaining activity at 10 µM: 99.2%
TRKC; [2]
  remaining activity at 10 µM: 100%
TRKC; [3]
  remaining activity at 10 µM: 98%
FMS; [1]
  remaining activity at 10 µM: 95%
FMS; [2]
  remaining activity at 10 µM: 97.2%
FMS; [3]
  remaining activity at 10 µM: 92.8%
ABL2/ARG; [1]
  remaining activity at 10 µM: 83%
ABL2/ARG; [2]
  remaining activity at 10 µM: 84.7%
ABL2/ARG; [3]
  remaining activity at 10 µM: 81.4%
DCAMKL1; [1]
  remaining activity at 10 µM: 92.5%
DCAMKL1; [2]
  remaining activity at 10 µM: 96.2%
DCAMKL1; [3]
  remaining activity at 10 µM: 88.8%
ERK1; [1]
  remaining activity at 10 µM: 102%
ERK1; [2]
  remaining activity at 10 µM: 98.8%
ERK1; [3]
  remaining activity at 10 µM: 104%
DAPK2; [1]
  remaining activity at 10 µM: 105%
DAPK2; [2]
  remaining activity at 10 µM: 104%
DAPK2; [3]
  remaining activity at 10 µM: 105%
DMPK2; [1]
  remaining activity at 10 µM: 139%
DMPK2; [2]
  remaining activity at 10 µM: 140%
DMPK2; [3]
  remaining activity at 10 µM: 139%
LRRK2; [1]
  remaining activity at 10 µM: 99.5%
LRRK2; [2]
  remaining activity at 10 µM: 102%
LRRK2; [3]
  remaining activity at 10 µM: 97.1%
CLK2; [1]
  remaining activity at 10 µM: 101%
CLK2; [2]
  remaining activity at 10 µM: 102%
CLK2; [3]
  remaining activity at 10 µM: 99.7%
